According to ChEMBL document CHEMBL1128612, “Synthesis and biological activity of enantiomers of a conformationally restricted muscarone analog” (Bioorg Med Chem Lett, 1995):

Experiments:
[1] = target: T1, Muscarinic acetylcholine receptor M1 (Rattus norvegicus, UniProt P08482)
T1 sequence (P08482 whole entry): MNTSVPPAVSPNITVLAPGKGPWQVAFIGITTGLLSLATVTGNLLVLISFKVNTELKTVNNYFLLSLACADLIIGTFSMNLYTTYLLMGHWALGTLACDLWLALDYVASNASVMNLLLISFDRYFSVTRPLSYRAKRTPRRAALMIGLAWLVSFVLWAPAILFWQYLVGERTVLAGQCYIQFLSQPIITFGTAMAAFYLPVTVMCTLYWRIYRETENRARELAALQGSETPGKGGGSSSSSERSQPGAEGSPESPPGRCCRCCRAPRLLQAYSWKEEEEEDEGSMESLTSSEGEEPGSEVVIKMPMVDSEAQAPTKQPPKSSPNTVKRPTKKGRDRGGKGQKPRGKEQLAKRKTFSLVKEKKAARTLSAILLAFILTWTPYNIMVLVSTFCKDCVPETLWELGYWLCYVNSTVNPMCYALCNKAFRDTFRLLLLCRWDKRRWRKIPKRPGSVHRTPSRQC
Description: Compound was evaluated for its affinity towards Muscarinic acetylcholine receptor M1, using [3H]- pirenzepine, a radioligand displacement assay in rat hippocampal membranes

[2] = target: T2, Muscarinic acetylcholine receptor M2 (Rattus norvegicus, UniProt P10980)
T2 sequence (P10980 whole entry): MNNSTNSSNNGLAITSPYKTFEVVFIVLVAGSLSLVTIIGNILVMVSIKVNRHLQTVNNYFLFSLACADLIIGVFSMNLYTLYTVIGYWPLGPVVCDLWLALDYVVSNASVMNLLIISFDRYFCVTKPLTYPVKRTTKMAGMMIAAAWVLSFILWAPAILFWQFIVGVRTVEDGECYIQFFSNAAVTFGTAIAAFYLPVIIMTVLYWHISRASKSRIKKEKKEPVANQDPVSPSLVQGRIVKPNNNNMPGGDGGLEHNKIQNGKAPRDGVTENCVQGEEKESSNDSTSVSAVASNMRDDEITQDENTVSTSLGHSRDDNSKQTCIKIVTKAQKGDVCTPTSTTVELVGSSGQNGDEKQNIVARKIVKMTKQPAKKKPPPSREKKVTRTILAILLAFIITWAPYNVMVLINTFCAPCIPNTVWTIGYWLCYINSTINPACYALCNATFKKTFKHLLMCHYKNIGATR
Description: Compound was evaluated for its affinity towards Muscarinic acetylcholine receptor M2, using [3H]- N-methyl-scopolamine, a radioligand displacement assay in rat heart membranes

[3] = target: Muscarinic acetylcholine receptor M3 (Cavia porcellus) (UniProt Q8VH26)
Chain of Muscarinic acetylcholine receptor M3 (Cavia porcellus) (Q8VH26 1-587): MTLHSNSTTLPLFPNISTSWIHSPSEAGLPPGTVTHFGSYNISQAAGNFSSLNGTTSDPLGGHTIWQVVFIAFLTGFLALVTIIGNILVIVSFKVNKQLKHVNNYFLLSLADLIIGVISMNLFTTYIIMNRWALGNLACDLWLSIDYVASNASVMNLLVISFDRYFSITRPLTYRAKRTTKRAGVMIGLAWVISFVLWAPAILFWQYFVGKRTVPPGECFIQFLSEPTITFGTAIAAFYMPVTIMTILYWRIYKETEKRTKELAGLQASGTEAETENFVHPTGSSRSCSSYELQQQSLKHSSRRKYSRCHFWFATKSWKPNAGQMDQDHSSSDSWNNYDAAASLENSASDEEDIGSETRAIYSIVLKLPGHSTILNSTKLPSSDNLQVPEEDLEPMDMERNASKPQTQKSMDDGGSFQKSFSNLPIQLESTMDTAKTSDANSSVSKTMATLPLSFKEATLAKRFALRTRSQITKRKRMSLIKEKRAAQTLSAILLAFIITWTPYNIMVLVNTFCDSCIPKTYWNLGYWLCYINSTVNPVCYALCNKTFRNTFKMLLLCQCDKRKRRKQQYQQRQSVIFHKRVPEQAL
Description: Compound was evaluated for dissociation constant (KA), determined from potency against Muscarinic acetylcholine receptor M3 in an isolated tissue assay (guinea pig trachea)

SMILES | Ki [1] [µM] | Ki [2] [µM] | KA [3] [µM]
C[C@H]1OC2(CCN(C)CC2)CC1=O | 26 | 37 | 4.5
CC1OC2(CCN(C)CC2)CC1=O (centres undefined) | 3.8 | 5.3 | 0.7
C[C@@H]1OC2(CCN(C)CC2)CC1=O | 4.1 | 2.5 | 0.28
